According to patent publication US4182896A, “Indane derivatives” (Societe Hexachimie, priority 1974, dated 1980):
Counter-ions that a name gives are not always drawn.

Tests used:
[1] = tested on: male mice (SPF1, OF1 strain); assay: Analgesic activity: inhibition of pain reactions (abdominal twistings) after intraperitoneal phenylbenzoquinone, oral administration; format: in vivo; conditions: for percentage inhibition of pain reactions: mouse; for ED50: read-out: ED50 (50% effective dose), analgesic; for inhibition in vivo at 8 mg/kg: 8 mg/kg oral; for inhibition in vivo at 4 mg/kg: 4 mg/kg oral
Description: The products tested are administered orally to batches of 6 male mice (SPF1, OF1 strain) weighing 19-20 g.
1 hour later, 0.3 ml of a 0.02% strength solution of phenylbenzoquinone is injected intraperitoneally into each mouse and, from the 5th to the 10th minute after the latter treatment, the number of pain reactions (abdominal twistings) is counted.
Table V to VIII below give the percentage inhibition of these reactions.

[2] = tested on: SPF male rats, OFA strain; assay: Anti-inflammatory activity: paw swelling after subcutaneous plantar injection of carraghenine, oral administration; format: in vivo; conditions: for inhibition in vivo at 32 mg/kg: 32 mg/kg oral; for ED50: read-out: ED50 (50% effective dose), anti-inflammatory; for inhibition in vivo at 512 mg/kg: 512 mg/kg oral
Description: Anti-inflammatory activity
The products to be tested are administered orally to batches of 12 SPF male rats, OFA strain, weighing 120-130 g, 2 hours and 30 minutes (1/2 dose each time) before the subcutaneous plantar injection of 0.05 ml of a 1% strength solution of carraghenine. The volume of the back paw which received the phlogogenic agent is measured at regular intervals. The 50% effective dose is calculated at the moment of greatest swelling of the controls.
The results are given in Tables I to IV below, in which the percentage reduction in the inflammation is noted.

[3] = Mus musculus, po, 32 mg/kg oral, read-out: percentage inhibition of pain reactions
[4] = 16 mg/kg oral, rat, carraghenine
[5] = Rattus norvegicus, po, carraghenine, read-out: percentage reduction in the inflammation
[6] = Rattus norvegicus, po, 64 mg/kg oral, carraghenine, read-out: percentage reduction in the inflammation
[7] = Rattus norvegicus, po, 128 mg/kg oral, carraghenine, read-out: percentage reduction in the inflammation
[8] = Rattus norvegicus, po, 256 mg/kg oral, carraghenine, read-out: percentage reduction in the inflammation
[9] = Rattus norvegicus, po, at the moment of greatest swelling of the controls
[10] = Mus musculus, po, 64 mg/kg oral, read-out: percentage inhibition of pain reactions
[11] = Mus musculus, po, 128 mg/kg oral, read-out: percentage inhibition of pain reactions
[12] = Mus musculus, po, 256 mg/kg oral, read-out: percentage inhibition of pain reactions
[13] = Mus musculus, po, 16 mg/kg oral, read-out: percentage inhibition of pain reactions
[14] = Rattus norvegicus, po, 16 mg/kg oral, carraghenine, read-out: percentage reduction in the inflammation
[15] = Mus musculus, po, read-out: percentage inhibition of pain reactions
[16] = Rattus norvegicus, po, 4 mg/kg oral, carraghenine, read-out: percentage reduction in the inflammation

SMILES	inhibition in vivo at 32 mg/kg [1, 3]	ED50 ([1]; Mus musculus, po)	inhibition in vivo at 32 mg/kg [2, 5]	inhibition in vivo at 64 mg/kg [2, 6]	inhibition in vivo at 128 mg/kg [2, 7]	inhibition in vivo at 256 mg/kg [2, 8]	ED50 [2, 9]	inhibition in vivo at 64 mg/kg [1, 10]	inhibition in vivo at 128 mg/kg [1, 11]	inhibition in vivo at 16 mg/kg [1, 13]	inhibition in vivo at 16 mg/kg [2, 14]	inhibition in vivo at 8 mg/kg [1, 15]	inhibition in vivo at 4 mg/kg [2, 16]	also measured
CCC(C(=O)O)c1ccc2c(c1)CC(C(C)C)C2 (stereo not drawn) [Example 20, Dimethylaminoethanol salt of 2-ethyl-[2-isopropyl-indanyl-(5)]-acetic acid]	26%	175 mg/kg	24%	25%	38%	37%	> 256 mg/kg	–	–	–	–	–	–	percentage inhibition of pain reactions ([1]; 128 mg/kg oral): 27%; percentage inhibition of pain reactions ([1]; 256 mg/kg oral): 74%; percentage inhibition of pain reactions ([1]; 512 mg/kg oral): 100%; percentage reduction in the inflammation [2, 4]: 16%
CC1Cc2ccc(CC(=O)OCCN3CCOCC3)cc2C1 (stereo not drawn) [Example 21, Hydrochloride of the morpholino-ethyl ester of [2-methyl-indanyl-(5)]-acetic acid]	–	200 mg/kg	17%	25%	52%	68%	130 mg/kg	2%	51%	–	–	–	–	inhibition in vivo at 256 mg/kg [1, 12]: 71%; inhibition in vivo at 512 mg/kg ([1]; Mus musculus, po, 512 mg/kg oral, read-out: percentage inhibition of pain reactions): 81%
CC1Cc2ccc(C(C)C(=O)OCCN3CCOCC3)cc2C1 (stereo not drawn) [Example 22, Oxalate of the morpholino-ethyl ester of 2-methyl-[2-methyl-indanyl-(5)]-acetic acid]	19%	45 mg/kg	7%	12%	11%	34%	480 mg/kg	73%	86%	13%	17%	–	–	inhibition in vivo at 256 mg/kg [1, 12]: 98%; inhibition in vivo at 512 mg/kg [2, 5]: 52%
CC1(C)Cc2ccc(CC(=O)OCCN3CCOCC3)cc2C1 [Example 23, Hydrochloride of the morpholino-ethyl ester of [2,2-dimethyl-indanyl-(5)]-acetic acid]	36%	–	9%	30%	50%	55%	140 mg/kg	82%	45%	20%	–	1%	–	inhibition in vivo at 256 mg/kg [1, 12]: 45%; inhibition in vivo at 512 mg/kg [2, 5]: 90%
CC(C(=O)OCCN1CCOCC1)c1ccc2c(c1)CC(C)(C)C2 (stereo not drawn) [Example 24, Hydrochloride of the morpholino-ethyl ester of 2-methyl-[2,2-dimethyl-indanyl-(5)]-acetic acid]	32%	35 mg/kg	21%	36%	50%	57%	142 mg/kg	53%	97%	24%	7%	0%	–	inhibition in vivo at 512 mg/kg [2, 5]: 73%
CC(C(=O)OCCN1CCOCC1)c1ccc2c(c1)CC(C1CCCCC1)C2 (stereo not drawn) [Example 25, Hydrochloride of the morpholino-ethyl ester of 2-methyl-[2-cyclohexyl-indanyl-(5)]-acetic acid]	19%	80 mg/kg	28%	7%	12%	10%	> 256 mg/kg	50%	64%	–	26%	–	–	–
CCC1Cc2ccc(C(C)C(=O)OCCN3CCOCC3)cc2C1 (stereo not drawn) [Example 26, Oxalate of the morpholino-ethyl ester of 2-methyl-[2-ethyl-indanyl-(5)]-acetic acid]	69%	18 mg/kg	47%	54%	68%	70%	40 mg/kg	94%	–	52%	38%	17%	–	–
CC(C(=O)OCCN(C)C)c1ccc2c(c1)CC(C(C)C)C2 (stereo not drawn) [Example 27, Hydrochloride of the dimethylaminoethyl ester of 2-methyl-[2-isopropyl-indanyl-(5)]-acetic acid]	69%	–	–	61%	64%	76%	22 mg/kg	94%	99%	42%	54%	7%	29%	–
CCN(CC)CCOC(=O)C(C)c1ccc2c(c1)CC(C(C)C)C2 (stereo not drawn) [Example 28, Oxalate of the diethylaminoethyl ester of 2-methyl-[2-isopropylindanyl-(5)]-acetic acid]	66%	20 mg/kg	–	66%	72%	79%	24 mg/kg	86%	–	40%	31%	20%	37%	inhibition in vivo at 4 mg/kg [1, 15]: 21%
CC(C(=O)OC(C)(C)CN(C)C)c1ccc2c(c1)CC(C(C)C)C2.O=C(O)/C=C\C(=O)O (stereo not drawn) [Example 29, Maleate of the dimethylamino-α-dimethyl-ethyl ester of 2-methyl-[2-isopropyl-indanyl-(5)]-acetic acid]	–	–	–	–	–	–	–	–	–	–	–	–	–	percentage inhibition of pain reactions ([1]; 16 mg/kg oral): 8%; percentage inhibition of pain reactions ([1]; 32 mg/kg oral): 43%; percentage inhibition of pain reactions ([1]; 64 mg/kg oral): 57%; percentage inhibition of pain reactions ([1]; 128 mg/kg oral): 86%; percentage inhibition of pain reactions ([1]; 256 mg/kg oral): 96%; percentage reduction in the inflammation ([2]; 4 mg/kg oral, rat, carraghenine): 12%; percentage reduction in the inflammation [2, 4]: 35%; percentage reduction in the inflammation ([2]; 64 mg/kg oral, rat, carraghenine): 45%; percentage reduction in the inflammation ([2]; 128 mg/kg oral, rat, carraghenine): 72%; percentage reduction in the inflammation ([2]; 256 mg/kg oral, rat, carraghenine): 65%; ED50 (50% effective dose), anti-inflammatory ([2]; oral, rat, at the moment of greatest swelling of the controls): 55 mg/kg
CC(C(=O)OCCN1CCCCC1)c1ccc2c(c1)CC(C(C)C)C2 (stereo not drawn) [Example 30, Oxalate of the piperidine-ethyl ester of 2-methyl-[2-isopropyl-indanyl-(5)]-acetic acid]	32%	37 mg/kg	–	55%	47%	52%	–	73%	99%	11%	32%	–	10%	–
CC(C(=O)OCCN1CCCC1)c1ccc2c(c1)CC(C(C)C)C2 (stereo not drawn) [Example 32, Maleate of the pyrrolidino-ethyl ester of 2-methyl-[2-isopropyl-indanyl-(5)]-acetic acid]	79%	18 mg/kg	–	59%	55%	–	65 mg/kg	99%	–	47%	21%	6%	19%	–
CC(CO)c1ccc2c(c1)CC(C(C)C)C2 (stereo not drawn) [Example 33, 2-Methyl-β-[2-isopropyl-indanyl-(5)]-ethanol]	90%	9 mg/kg	34%	52%	58%	63%	85 mg/kg	–	–	68%	13%	42%	–	inhibition in vivo at 2 mg/kg ([1]; Mus musculus, po, 2 mg/kg oral, read-out: percentage inhibition of pain reactions): 6%; inhibition in vivo at 4 mg/kg [1, 15]: 25%; inhibition in vivo at 8 mg/kg ([2]; Rattus norvegicus, po, 8 mg/kg oral, carraghenine, read-out: percentage reduction in the inflammation): 0%
